Test results published in patent publication US9271978B2 (Zenith Epigenetics Corp., priority 2012, dated 2016).

Key:
Set-up in all cases: key: Active: Compounds with an IC50 value less than 30 μM were deemed to be active.; Not Active: Compounds with an IC50 value less than 30 μM were deemed to be active
[1] = tested on: human AML MV-4-11 (CRL-9591) cells; assay: Inhibition of cell proliferation in MV4-11 cells; type: cell-based; conditions: human AML MV-4-11 cells, 72 h; active = IC50 <30 μM
Description: MV4-11 cells: 96-well plates were seeded with 5×10^4 cells per well of exponentially growing human AML MV-4-11 (CRL-9591) cells and immediately treated with two-fold dilutions of test compounds, ranging from 30 μM to 0.2 μM. Triplicate wells were used for each concentration, as well as a media only and three DMSO control wells. The cells and compounds were incubated at 37° C., 5% CO2 for 72 h before adding 20 μL of the CellTiter Aqueous One Solution (Promega) to each well and incubating at 37° C., 5% CO2 for an additional 3-4 h. The absorbance was taken at 490 nm in a spectrophotometer and the percentage of proliferation relative to DMSO-treated cells was calculated after correction from the blank well. IC50 were calculated using the GraphPad Prism software.

c-myc = assay: Inhibition of c-myc expression in MV4-11 cells (mRNA, real-time PCR); type: cell-based; conditions: Human AML MV4-11 cells, 3 h incubation
Description: MV4-11 cells (2.5×10^4 cells) were plated in 96 well U-bottom plates with test compound or DMSO (0.1%), and incubated for 3 h at 37° C. Cells were then harvested by centrifugation, lysed, and mRNA was isolated using the mRNA catcher plus kit (Invitrogen). Reverse transcription of the mRNA and duplex amplification of the c-myc and cyclophilin cDNAs was performed using the RNA Ultrasense kit (Invitrogen) and a ViiA7 real-time PCR machine (Applied Biosystems). IC50 values were determined from a dose response curve.

[2] = target: T1, Brd4 bromodomain 1 (BRD4(1)) (Homo sapiens, UniProt O60885); assay: Inhibition of tetra-acetylated histone H4 binding to Brd4 bromodomain 1 (TR-FRET); conditions: tetra-acetylated histone H4 peptide, active = IC50 <30 μM
T1 construct: Illustrative results with the first bromodomain of Brd4; made in house; host or cells: E. coli BL21 (DE3)
Summary of the method: (§1)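 IC50 values come from dose-response curves of the 665 nm to 620 nm TR-FRET signal decrease, measured after 2 h at room temperature. Reactions contained 200 nM E. coli-expressed His-tagged bromodomain, 25-50 nM biotinylated tetra-acetylated H4 peptide, Eu-streptavidin plus XL665 anti-His antibody, with 30 mM HEPES pH 7.4, 320 mM KF and 0.2% DMSO.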

hIL-6 mRNA = assay: Inhibition of hIL-6 mRNA transcription in U937 cells; type: cell-based, human; conditions: LPS stimulation, active = IC50 <30 μM
Description: In this example, hIL-6 mRNA in tissue culture cells was quantitated to measure the transcriptional inhibition of hIL-6 when treated with a compound of the present disclosure.
A human leukemic monocyte lymphoma cell line (U937) was plated (3.2×10^4 cells per well) in a 96-well plate in […] RPMI-1640 containing 10% FBS and penicillin/streptomycin, and differentiated into macrophages for 3 days in 60 ng/mL PMA ([…]) at 37° C. in 5% CO2 prior to the addition of the compound of interest. The cells were pretreated for 1 h with the test compound prior to stimulation with 1 ug/mL lipopolysaccharide from Escherichia coli. The cells were incubated at 37° C. for 3 h before the cells were harvested. At time of harvest, the spent media was removed from the cells and the cells were rinsed in […] PBS. Cell lysis solution (70 μL) was added the cells in each well and incubated for 5-10 min at room temperature, to allow for complete cell lysis and detachment. mRNA was then prepared using the “mRNA Catcher PLUS plate” (Invitrogen), according to the protocol supplied. After the last wash, as much wash buffer as possible was aspirated without allowing the wells to dry. Elution buffer (E3, 70 μL) was then added to each well. mRNA was then eluted by incubating the mRNA Catcher PLUS plate with Elution Buffer for 5 min at 68° C. and then immediately placing the plate on ice.
The eluted mRNA isolated was then used in a one-step quantitative real-time PCR reaction, using components of the Ultra Sense Kit together with Applied Biosystems primer-probe mixes. Real-time PCR data was analyzed, normalizing the Ct values for hIL-6 to an internal control, prior to determining the fold induction of each unknown sample, relative to the control.

[3] = target: T2, second bromodomain of Brd2 (BRD2(2)) (Homo sapiens, UniProt P25440); assay: Inhibition of tetra-acetylated histone H4 binding to Brd2 bromodomain 2 (TR-FRET); conditions: tetra-acetylated histone H4 peptide, active = IC50 <30 μM
T2 construct: made in house; host or cells: E. coli BL21 (DE3)
T2 sequence (P25440 344-453 limits assumed): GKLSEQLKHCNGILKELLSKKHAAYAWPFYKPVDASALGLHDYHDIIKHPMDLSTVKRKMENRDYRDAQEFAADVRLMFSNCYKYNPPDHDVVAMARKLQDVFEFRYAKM
Summary of the method: as §1

Row | Cell Proliferation activity (IC50 <30 μM) [1] | c-myc activity (IC50 <30 μM) (c-myc) | FRET activity (IC50 <30 μM) BRD4(1) [2] | IL-6 activity (IC50 <30 μM) (hIL-6 mRNA) | FRET activity (IC50 <30 μM) BRD2(2) [3] | Structure (SMILES)
1 | Active | Active | Active | Active |  | Cc1cc(Cn2cc(-c3c(C)noc3C)cc(N)c2=O)on1 [Example 240, 3-amino-5-(3,5-dimethylisoxazol-4-yl)-1-((3-methylisoxazol-5-yl)methyl)pyridin-2(1H)-one]
2 | Active | Active | Active | Active |  | Cc1noc(C)c1-c1cc(N)c(=O)n(Cc2ccc(Br)c(C#N)c2)c1 [Example 272, 5-((3-amino-5-(3,5-dimethylisoxazol-4-yl)-2-oxopyridin-1(2H)-yl)methyl)-2-bromobenzonitrile]
3 | Active | Active | Active |  |  | Cc1noc(C)c1-c1cc(N)c(=O)n(Cc2ccc(C#N)cc2F)c1 [Example 261, 4-((3-amino-5-(3,5-dimethylisoxazol-4-yl)-2-oxopyridin-1(2H)-yl)methyl)-3-fluorobenzonitrile]
4 | Active | Active | Active |  |  | Cc1noc(C)c1-c1cc(N)c(=O)n(Cc2ccc(Cl)cn2)c1 [Example 255, 3-amino-1-((5-chloropyridin-2-yl)methyl)-5-(3,5-dimethylisoxazol-4-yl)pyridin-2(1H)-one]
5 |  | Active | Active |  | Active | Cc1noc(C)c1-c1ccc(=O)n(Cc2ccccc2C#N)c1 [Example 135, 2-((5-(3,5-Dimethylisoxazol-4-yl)-2-oxopyridin-1(2H)-yl)methyl)benzonitrile]
6 | Active | Active | Active | Active |  | Cc1noc(C)c1-c1cc(N)c(=O)n(Cc2ccc3c(c2)OCO3)c1 [Example 256, 3-amino-1-(benzo[d][1,3]dioxol-5-ylmethyl)-5-(3,5-dimethylisoxazol-4-yl)pyridin-2(1H)-one]
7 | Active | Active | Active | Active |  | Cc1noc(C)c1-c1cc(N)c(=O)n(Cc2cncc(Cl)c2)c1 [Example 252, 3-amino-1-((5-chloropyridin-3-yl)methyl)-5-(3,5-dimethylisoxazol-4-yl)pyridin-2(1H)-one]
8 | Active | Active | Active | Active |  | Cc1cc(Cn2cc(-c3c(C)noc3C)cc(N)c2=O)c(C)s1 [Example 251, 3-amino-5-(3,5-dimethylisoxazol-4-yl)-1-((2,5-dimethylthiophen-3-yl)methyl)pyridin-2(1H)-one]
9 | Active | Active | Active | Active |  | Cc1noc(C)c1-c1cc(N)c(=O)n(Cc2ccc(C(C)C)cc2)c1 [Example 242, 3-Amino-5-(3,5-dimethylisoxazol-4-yl)-1-(4-isopropylbenzyl)pyridin-2(1H)-one]
10 | Active | Active | Active | Active |  | Cc1noc(C)c1-c1cc(N)c(=O)n(Cc2c[nH]c3ccccc23)c1 [Example 270, 1-((1H-indol-3-yl)methyl)-3-amino-5-(3,5-dimethylisoxazol-4-yl)pyridin-2(1H)-one]
11 | Active | Active | Active | Active |  | COc1cncc(Nc2cc(-c3c(C)noc3C)cn(Cc3ccccc3)c2=O)c1 [Example 231]
12 | Not Active | Not Active | Active |  | Active | Cc1noc(C)c1-c1ccc(=O)n(Cc2ccccn2)n1 [Example 2, 6-(3,5-Dimethylisoxazol-4-yl)-2-(pyridin-2-ylmethyl)pyridazin-3(2H)-one]
13 | Not Active | Not Active | Active |  | Active | Cc1noc(C)c1-c1ccc(=O)n(Cc2c(F)cccc2F)n1 [Example 90, 2-(2,6-Difluorobenzyl)-6-(3,5-dimethylisoxazol-4-yl)pyridazin-3(2H)-one]
14 |  | Active | Active |  | Active | CC(=O)Nc1cc(-c2c(C)noc2C)cn(Cc2ccccc2)c1=O [Example 71, N-(1-Benzyl-5-(3,5-dimethylisoxazol-4-yl)-2-oxo-1,2-dihydropyridin-3-yl)acetamide]
15 | Not Active | Not Active | Active |  | Active | Cc1noc(C)c1-c1ccc(=O)n(Cc2cccc(F)c2)n1 [Example 22, 6-(3,5-Dimethylisoxazol-4-yl)-2-(3-fluorobenzyl)pyridazin-3(2H)-one]
16 | Active |  | Active | Active | Active | Cc1noc(C)c1-c1ccc(=O)n(Cc2ccccc2Cl)n1 [Example 26, 2-(2-Chlorobenzyl)-6-(3,5-dimethylisoxazol-4-yl)pyridazin-3(2H)-one]
17 |  | Active | Active | Active | Active | Cc1noc(C)c1-c1ccc(=O)n(Cc2ccsc2)c1 [Example 79, 5-(3,5-Dimethylisoxazol-4-yl)-1-(thiophen-3-ylmethyl)pyridin-2(1H)-one]
18 | Active | Active | Active |  |  | Cc1noc(C)c1-c1cc(N)c(=O)n(Cc2ccc(C#N)c(F)c2)c1 [Example 262, 4-((3-amino-5-(3,5-dimethylisoxazol-4-yl)-2-oxopyridin-1(2H)-yl)methyl)-2-fluorobenzonitrile]
19 |  | Active | Active | Active | Active | Cc1ccccc1Cn1cc(-c2c(C)noc2C)ccc1=O [Example 121, 5-(3,5-Dimethylisoxazol-4-yl)-1-(2-methylbenzyl)pyridin-2(1H)-one]
